# Earlier results, collected in patent US20230124124A1, “COMPOSITIONS AND METHODS FOR MYOPIA CONTROL AND ORTHOKERATOLOGY LENSES TREATMENT” (Ocular Science, Inc., priority 2021, published 2023).
# Experiments:
# [1] = test system: human corneal epithelial cells; settings: 0.01% BAK; within hours
# corneas = settings: one week of treatment
substance,measurement,setting,value
benzalkonium chloride [BAK],effect on human corneal epithelial cells,[1],"immediate cell retraction, cessation of normal cytokinesis and mitotic activity, and degeneration of human corneal epithelial cells"
same,aqueous tear production,corneas,significantly reduced
same,fluorescein staining,corneas,increased
same,inflammatory cell infiltration,corneas,increased
same,stromal nerve fiber density (NFD),corneas,significantly reduced
